Read-outs that look alike come from different tables or passages of the source.
Columns and labels:
PfCDPK1 [1] = target: T1, PfCDPK1 (Plasmodium falciparum, UniProt P62344); conditions: absence of MTIP; for IC50: mean (SD), n = 2
PbCDPK1 = PbCDPK1 (Plasmodium berghei, UniProt A0A509AHB6); test: Rh-ParM ADP sensor IC50 assay, PbCDPK1; conditions: for IC50: read-out: IC50 PbCDPK1, Rh-ParM, absence of MTIP, mean (SD)
PvCDPK1 = PvCDPK1 (Plasmodium vivax, UniProt A5KBU9); test: Rh-ParM ADP sensor IC50 assay, PvCDPK1; conditions: for IC50: read-out: IC50 PvCDPK1, Rh-ParM, absence of MTIP, mean (SD)
Chain of PvCDPK1 (A5KBU9 entry or part of it): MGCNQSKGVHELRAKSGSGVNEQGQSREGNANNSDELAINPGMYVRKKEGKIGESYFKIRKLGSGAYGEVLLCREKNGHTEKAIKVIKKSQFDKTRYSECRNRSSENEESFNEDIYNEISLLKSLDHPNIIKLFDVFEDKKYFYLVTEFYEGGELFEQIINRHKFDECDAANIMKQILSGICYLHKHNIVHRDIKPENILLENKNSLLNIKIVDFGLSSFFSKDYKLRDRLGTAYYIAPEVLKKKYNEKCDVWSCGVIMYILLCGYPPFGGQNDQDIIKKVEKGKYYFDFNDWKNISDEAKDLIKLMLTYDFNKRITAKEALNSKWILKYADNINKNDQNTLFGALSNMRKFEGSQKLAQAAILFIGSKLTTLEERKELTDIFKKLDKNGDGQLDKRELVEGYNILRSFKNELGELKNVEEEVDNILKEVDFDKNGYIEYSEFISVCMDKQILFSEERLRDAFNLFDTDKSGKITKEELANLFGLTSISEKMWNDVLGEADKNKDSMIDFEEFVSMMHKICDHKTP

[2] = design: method as in PMID 24689770; conditions: cited from earlier work
P. falciparum 3D7 = test: FACS assay for parasite growth
[3] = P. berghei mouse model; cited from earlier work
PfCDPK1 [4] = target: T1, PfCDPK1; test: Radiometric assay, incorporation of 33P into MTIP; conditions: for IC50 ratio (ATP depletion/radiometric assay): Kinase-Glo Plus IC50 / radiometric IC50; for IC50: read-out: IC50 Radiometric assay, ATP and MTIP at their respective Km values
PfCDPK1 [5] = target: T1, PfCDPK1; test: Kinase-Glo Plus ATP depletion assay; conditions: read-out: IC50 ATP depletion, ATP and MTIP at their respective Km values
[6] = read-out: IC50 PfCDPK1, Rh-ParM, ATP at Km
[7] = read-out: IC50 With 30 μM ATP, 30 μM ATP, Rh-ParM ADP detection
[8] = read-out: IC50 With 1 mM ATP, 1 mM ATP, Rh-ParM ADP detection
[9] = Plasmodium falciparum, 3D7, 48 h, read-out: mean EC50, positive controls in parasite growth assay

T1 sequence (P62344 whole entry): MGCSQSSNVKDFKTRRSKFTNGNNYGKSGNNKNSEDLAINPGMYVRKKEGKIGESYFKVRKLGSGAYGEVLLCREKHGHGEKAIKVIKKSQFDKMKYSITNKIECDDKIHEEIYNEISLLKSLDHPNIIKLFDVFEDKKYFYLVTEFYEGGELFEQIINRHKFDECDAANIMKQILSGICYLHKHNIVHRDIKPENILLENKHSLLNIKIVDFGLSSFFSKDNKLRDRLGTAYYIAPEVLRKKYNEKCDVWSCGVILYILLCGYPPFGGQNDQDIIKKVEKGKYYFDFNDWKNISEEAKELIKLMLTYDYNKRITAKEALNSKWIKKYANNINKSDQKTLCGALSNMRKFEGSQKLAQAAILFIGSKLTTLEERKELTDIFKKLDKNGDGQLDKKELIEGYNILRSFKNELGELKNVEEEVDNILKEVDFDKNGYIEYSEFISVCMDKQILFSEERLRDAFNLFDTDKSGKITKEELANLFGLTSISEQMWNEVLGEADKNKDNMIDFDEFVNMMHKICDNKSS
Chain of PbCDPK1 (A0A509AHB6 whole entry): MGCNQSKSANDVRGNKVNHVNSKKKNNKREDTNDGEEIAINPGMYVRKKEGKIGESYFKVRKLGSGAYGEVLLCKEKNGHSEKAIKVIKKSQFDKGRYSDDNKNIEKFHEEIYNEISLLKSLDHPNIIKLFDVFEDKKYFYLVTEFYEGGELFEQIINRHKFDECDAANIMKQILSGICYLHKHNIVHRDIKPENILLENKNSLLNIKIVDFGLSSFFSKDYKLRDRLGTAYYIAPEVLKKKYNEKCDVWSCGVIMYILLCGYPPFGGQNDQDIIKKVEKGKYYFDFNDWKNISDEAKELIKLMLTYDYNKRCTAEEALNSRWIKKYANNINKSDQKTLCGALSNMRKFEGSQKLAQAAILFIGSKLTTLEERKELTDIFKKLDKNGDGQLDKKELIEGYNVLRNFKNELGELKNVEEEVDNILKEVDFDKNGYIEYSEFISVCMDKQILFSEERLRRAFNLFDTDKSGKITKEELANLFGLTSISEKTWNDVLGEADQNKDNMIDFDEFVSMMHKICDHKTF

With CC(C)CNc1ncc(-c2cnc3ccc(NC4CCC(N)CC4)nn23)cn1 (stereo not drawn) [Compound 29] the IC50 (PfCDPK1 [1]; [6]) was 0.086 µM, the “IC50 ratio PbCDPK1/PfCDPK1” value (PbCDPK1) was 4.6 and the IC50 (PbCDPK1; ATP at Km, n = 2) was 0.392 µM. For the same compound, the “IC50 ratio PvCDPK1/PfCDPK1” value (PvCDPK1) was 0.9 and the IC50 (PvCDPK1; ATP at Km, n = 2) was 0.08 µM.
For CN(C(=O)c1cc(COc2ccc(-n3ccnc3)cc2)on1)C1CCCCC1 [Compound 20], the “IC50 ratio (IC50 with 1 mM ATP/IC50 with 30 μM ATP)” value (PfCDPK1 [1]; Rh-ParM) was 44, the IC50 (PfCDPK1 [1]; [7]) was 0.728 µM and the IC50 (PfCDPK1 [1]; [8]) was 31.7 µM.
In the case of Fc1cccnc1Nc1ccc(-c2cnc3ccc(NC4CCC(N5CCCC5)CC4)nn23)cn1 (stereo not drawn) [Compound 4], the IC50 (PbCDPK1; n = 3) is given as 0.043 µM, the IC50 (PvCDPK1; n = 3) is given as less than 0.01 µM and the mlogD [2] is given as 2.8.
For CCc1nc(N)nc(N)c1-c1ccc(Cl)cc1 [Pyrimethamine, reference compound], the EC50 (P. falciparum 3D7; [9]) was 0.008 µM.
In the case of O=C(NCc1cccc(N2CCCC2)c1)c1ccc(-n2cnc3cccnc32)cc1 [Compound 17], the “IC50 ratio (IC50 with 1 mM ATP/IC50 with 30 μM ATP)” value (PfCDPK1 [1]; Rh-ParM) is reported as 27, the IC50 (PfCDPK1 [1]; [7]) is reported as 0.051 µM and the IC50 (PfCDPK1 [1]; [8]) is reported as 1.38 µM.
For NC1CCC(Nc2ccc3ncc(-c4cnc(Nc5ncccc5F)nc4)n3n2)CC1 (stereo not drawn) [Compound 2], the mlogD [2] is listed as 0.2, the “plasma exposure” value [3] is listed as “poor plasma exposure” and the EC50 (P. falciparum 3D7; read-out: Parasite growth inhibition EC50, FACS, mean (SD), n = 3) is listed as 0.013 µM.
In the case of c1cncc(CCNc2ccc3ncc(-c4ccc5c(c4)OCO5)n3n2)c1 [Compound 50], the “IC50 ratio (ATP depletion/radiometric assay)” value (PfCDPK1 [4]) is reported as 4.1, the IC50 (PfCDPK1 [4]) is reported as 0.01 µM and the IC50 (PfCDPK1 [5]) is reported as 0.041 µM.
With COc1ccc2ncc(-c3ccc(C(=O)NCc4ccccc4)cc3)n2n1 [Compound 12] the “IC50 ratio (ATP depletion/radiometric assay)” value (PfCDPK1 [4]) was 5.9, the IC50 (PfCDPK1 [4]) was 0.034 µM and the IC50 (PfCDPK1 [5]) was 0.2 µM. The “IC50 ratio (IC50 with 1 mM ATP/IC50 with 30 μM ATP)” value (PfCDPK1 [1]; Rh-ParM) was 37, the IC50 (PfCDPK1 [1]; [7]) was 0.107 µM and the IC50 (PfCDPK1 [1]; [8]) was 3.91 µM.
In the case of CC(=O)Nc1cccc(-c2cnc3ccc(NCCc4ccccn4)nn23)c1 [Compound 10], the “IC50 ratio (ATP depletion/radiometric assay)” value (PfCDPK1 [4]) is reported as 2.7, the IC50 (PfCDPK1 [4]) is reported as 0.024 µM and the IC50 (PfCDPK1 [5]) is reported as 0.065 µM. The “IC50 ratio (IC50 with 1 mM ATP/IC50 with 30 μM ATP)” value (PfCDPK1 [1]; Rh-ParM) was 27, the IC50 (PfCDPK1 [1]; [7]) was 0.064 µM and the IC50 (PfCDPK1 [1]; [8]) was 1.7 µM.
For Fc1cccnc1Nc1ncc(-c2cnc3ccc(NC4CCC(N5CCNCC5)CC4)nn23)cn1 (stereo not drawn) [Compound 46], the IC50 (PfCDPK1 [1]; [6]) was 0.013 µM, the “IC50 ratio PbCDPK1/PfCDPK1” value (PbCDPK1) was 2.8 and the IC50 (PbCDPK1; ATP at Km, n = 2) was 0.038 µM. For the same compound, the “IC50 ratio PvCDPK1/PfCDPK1” value (PvCDPK1) was 0.8 and the IC50 (PvCDPK1; ATP at Km, n = 2) was 0.011 µM.
For NC(=O)c1ccc(-c2cnn3ccc(NCCc4cccnc4)nc23)cc1 [Compound 15], the “IC50 ratio (ATP depletion/radiometric assay)” value (PfCDPK1 [4]) was 2.7, the IC50 (PfCDPK1 [4]) was 0.012 µM and the IC50 (PfCDPK1 [5]) was 0.032 µM. The “IC50 ratio (IC50 with 1 mM ATP/IC50 with 30 μM ATP)” value (PfCDPK1 [1]; Rh-ParM) was 12, the IC50 (PfCDPK1 [1]; [7]) was 0.023 µM and the IC50 (PfCDPK1 [1]; [8]) was 0.27 µM.
In the case of CN(C(=O)c1cc(COc2ccc(-n3cncn3)cc2)on1)C1CCCCC1 [Compound 19], the “IC50 ratio (IC50 with 1 mM ATP/IC50 with 30 μM ATP)” value (PfCDPK1 [1]; Rh-ParM) is reported as 336, the IC50 (PfCDPK1 [1]; [7]) is reported as 0.072 µM and the IC50 (PfCDPK1 [1]; [8]) is reported as 24.2 µM.
With C[C@@H]1CC[C@H]2[C@@H](C)C(=O)O[C@@H]3O[C@@]4(C)CC[C@@H]1[C@]32OO4 [artemisinin, reference compound] the EC50 (P. falciparum 3D7; [9]) was 0.013 µM.
In the case of CN1CCC(Nc2ccn3ncc(-c4cccc(NC(=O)c5ccccc5)c4)c3n2)CC1 [Compound 28], the IC50 (PfCDPK1 [1]; [6]) is reported as 0.04 µM, the “IC50 ratio PbCDPK1/PfCDPK1” value (PbCDPK1) is reported as 3.8 and the IC50 (PbCDPK1; ATP at Km, n = 2) is reported as 0.152 µM. The “IC50 ratio PvCDPK1/PfCDPK1” value (PvCDPK1) was 0.6 and the IC50 (PvCDPK1; ATP at Km, n = 2) was 0.024 µM.
In the case of CC(C)CCNc1ccc(-c2cnn3ccc(NC4CCN(C)C4)nc23)cn1 (stereo not drawn) [Compound 41], the IC50 (PfCDPK1 [1]; [6]) is reported as 0.073 µM, the “IC50 ratio PbCDPK1/PfCDPK1” value (PbCDPK1) is reported as 2.8 and the IC50 (PbCDPK1; ATP at Km, n = 2) is reported as 0.206 µM. The “IC50 ratio PvCDPK1/PfCDPK1” value (PvCDPK1) was 0.9 and the IC50 (PvCDPK1; ATP at Km, n = 2) was 0.068 µM.
In the case of c1ccc(-n2cc(-c3cnc4ccc(NC5CCNCC5)nn34)cn2)cc1 [Compound 44], the IC50 (PfCDPK1 [1]; [6]) is reported as 0.107 µM, the “IC50 ratio PbCDPK1/PfCDPK1” value (PbCDPK1) is reported as 4.3 and the IC50 (PbCDPK1; ATP at Km, n = 2) is reported as 0.463 µM. For the same compound, the “IC50 ratio PvCDPK1/PfCDPK1” value (PvCDPK1) was 0.6 and the IC50 (PvCDPK1; ATP at Km, n = 2) was 0.059 µM.
In the case of COc1ccc(-n2ccnc(SCC(=O)Nc3ccc(C)cc3C)c2=O)cc1 [Compound 24], the “IC50 ratio (IC50 with 1 mM ATP/IC50 with 30 μM ATP)” value (PfCDPK1 [1]; Rh-ParM) is reported as greater than 3, the IC50 (PfCDPK1 [1]; [7]) is reported as 31.2 µM and the IC50 (PfCDPK1 [1]; [8]) is reported as greater than 100 µM.

Reference: publication PMC4187893, “Biochemical and Antiparasitic Properties of Inhibitors of the Plasmodium falciparum Calcium-Dependent Protein Kinase PfCDPK1” (Antimicrobial Agents and Chemotherapy, 2014)
